Results: patent publication US20250243196A1, “CITRON KINASE INHIBITORS” (The Cleveland Clinic Foundation, priority 2021, published 2025)

Experiments:
Test in all cases: KinaseProfiler panel
Type in all cases: biochemical
Parameters in all cases: dose or concentration left out as unconfirmed
Settings in all cases: activity remaining
ROCK-II(h) = ROCK-II(h) (Homo sapiens (Human), UniProt O75116)
LRRK2(h) = LRRK2(h) (Homo sapiens (Human), UniProt Q5S007)
Fes(h) = Fes(h) (Homo sapiens (Human), UniProt P07332)
PIP5K1a(h) = PIP5K1a(h) (Homo sapiens (Human), UniProt Q99755)
GRK1(h) = GRK1(h) (Homo sapiens (Human), UniProt Q15835)
CLK2(h) = CLK2(h) (Homo sapiens (Human), UniProt P49760)
Abl(h) = Abl(h) (Homo sapiens (Human), UniProt P00519)
WNK1(h) = WNK1(h) (Homo sapiens (Human), UniProt Q9H4A3)
CDK7/cyclinH/MAT1(h) = CDK7/cyclinH/MAT1(h) (Homo sapiens (Human), UniProt P50613)
PKG1α(h) = PKG1α(h) (Homo sapiens (Human), UniProt Q13976)
BrSK2(h) = BrSK2(h) (Homo sapiens (Human), UniProt Q8IWQ3)
Chain of BrSK2(h) (Q8IWQ3 whole entry): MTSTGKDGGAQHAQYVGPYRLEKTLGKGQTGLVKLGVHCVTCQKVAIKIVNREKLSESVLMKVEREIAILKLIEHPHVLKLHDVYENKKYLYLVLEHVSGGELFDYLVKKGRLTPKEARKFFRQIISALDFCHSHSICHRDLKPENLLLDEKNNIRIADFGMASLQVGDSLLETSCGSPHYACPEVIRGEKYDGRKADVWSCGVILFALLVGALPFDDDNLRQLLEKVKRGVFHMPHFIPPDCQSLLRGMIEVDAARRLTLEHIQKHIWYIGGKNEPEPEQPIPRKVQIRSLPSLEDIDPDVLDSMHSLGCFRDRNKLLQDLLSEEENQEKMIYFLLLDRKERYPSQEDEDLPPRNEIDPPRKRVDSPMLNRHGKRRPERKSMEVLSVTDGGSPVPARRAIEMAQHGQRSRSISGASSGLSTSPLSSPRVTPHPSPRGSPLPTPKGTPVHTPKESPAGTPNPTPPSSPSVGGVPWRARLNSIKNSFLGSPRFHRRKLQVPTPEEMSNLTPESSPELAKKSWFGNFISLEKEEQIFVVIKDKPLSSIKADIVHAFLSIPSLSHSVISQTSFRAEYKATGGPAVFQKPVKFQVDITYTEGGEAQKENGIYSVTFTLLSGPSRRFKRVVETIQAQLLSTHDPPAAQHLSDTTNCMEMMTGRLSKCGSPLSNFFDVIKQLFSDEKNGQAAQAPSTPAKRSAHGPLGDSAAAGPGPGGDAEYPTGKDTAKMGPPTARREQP

Hck(h) = Hck(h) (Homo sapiens (Human), UniProt P08631)
CaMKIδ(h) = CaMKIδ(h) (Homo sapiens (Human), UniProt Q8IU85)
EphB3(h) = EphB3(h) (Homo sapiens (Human), UniProt P54753)
BTK(h) = BTK(h) (Homo sapiens (Human), UniProt Q06187)
IR(h) = IR(h) (Homo sapiens (Human), UniProt P06213)
Chain of IR(h) (P06213 28-1382): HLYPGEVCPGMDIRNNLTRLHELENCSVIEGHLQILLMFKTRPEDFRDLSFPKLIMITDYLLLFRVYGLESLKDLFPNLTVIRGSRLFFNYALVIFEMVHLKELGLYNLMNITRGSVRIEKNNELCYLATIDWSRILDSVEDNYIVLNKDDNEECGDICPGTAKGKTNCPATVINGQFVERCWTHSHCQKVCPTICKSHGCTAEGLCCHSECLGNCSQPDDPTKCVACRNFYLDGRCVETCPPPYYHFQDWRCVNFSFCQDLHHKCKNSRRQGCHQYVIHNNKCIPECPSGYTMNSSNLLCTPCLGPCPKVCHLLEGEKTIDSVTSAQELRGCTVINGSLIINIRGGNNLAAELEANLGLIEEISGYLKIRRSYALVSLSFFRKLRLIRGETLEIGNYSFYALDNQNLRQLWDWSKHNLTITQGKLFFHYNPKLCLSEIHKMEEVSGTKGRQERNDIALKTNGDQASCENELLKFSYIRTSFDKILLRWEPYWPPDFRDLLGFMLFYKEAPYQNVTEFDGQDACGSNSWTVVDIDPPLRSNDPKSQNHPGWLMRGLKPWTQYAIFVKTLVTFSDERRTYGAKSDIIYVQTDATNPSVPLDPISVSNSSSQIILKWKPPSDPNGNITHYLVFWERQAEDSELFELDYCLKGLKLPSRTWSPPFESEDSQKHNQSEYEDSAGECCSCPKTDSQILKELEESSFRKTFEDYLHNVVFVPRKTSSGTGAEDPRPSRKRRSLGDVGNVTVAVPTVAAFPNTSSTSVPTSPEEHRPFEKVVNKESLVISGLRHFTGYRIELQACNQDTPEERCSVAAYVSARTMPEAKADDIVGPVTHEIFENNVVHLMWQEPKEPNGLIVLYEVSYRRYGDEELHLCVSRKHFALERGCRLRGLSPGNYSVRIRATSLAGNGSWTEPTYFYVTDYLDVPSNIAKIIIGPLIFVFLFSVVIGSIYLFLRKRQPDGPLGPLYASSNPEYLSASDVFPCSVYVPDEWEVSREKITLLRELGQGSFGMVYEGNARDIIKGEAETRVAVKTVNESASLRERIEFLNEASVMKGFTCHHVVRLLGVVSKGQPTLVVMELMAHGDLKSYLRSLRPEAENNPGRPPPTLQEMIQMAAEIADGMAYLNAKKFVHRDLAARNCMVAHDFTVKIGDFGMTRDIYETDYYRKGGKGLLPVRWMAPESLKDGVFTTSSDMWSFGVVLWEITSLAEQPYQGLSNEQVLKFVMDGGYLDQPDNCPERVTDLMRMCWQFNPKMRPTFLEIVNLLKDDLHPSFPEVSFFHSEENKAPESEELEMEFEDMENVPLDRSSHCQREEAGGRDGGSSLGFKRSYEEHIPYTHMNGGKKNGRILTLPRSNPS

DDR2(h) = DDR2(h) (Homo sapiens (Human), UniProt Q16832)
MSK2(h) = MSK2(h) (Homo sapiens (Human), UniProt O75676)
MAP4K5(h) = MAP4K5(h) (Homo sapiens (Human), UniProt Q9Y4K4)
SLK(h) = SLK(h) (Homo sapiens (Human), UniProt Q9H2G2)
MAPK1(h) = MAPK1(h) (Homo sapiens (Human), UniProt P27361)
MLK2(h) = MLK2(h) (Homo sapiens (Human), UniProt Q02779)
SAPK4(h) = SAPK4(h) (Homo sapiens (Human), UniProt O15264)
Chain of SAPK4(h) (O15264 whole entry): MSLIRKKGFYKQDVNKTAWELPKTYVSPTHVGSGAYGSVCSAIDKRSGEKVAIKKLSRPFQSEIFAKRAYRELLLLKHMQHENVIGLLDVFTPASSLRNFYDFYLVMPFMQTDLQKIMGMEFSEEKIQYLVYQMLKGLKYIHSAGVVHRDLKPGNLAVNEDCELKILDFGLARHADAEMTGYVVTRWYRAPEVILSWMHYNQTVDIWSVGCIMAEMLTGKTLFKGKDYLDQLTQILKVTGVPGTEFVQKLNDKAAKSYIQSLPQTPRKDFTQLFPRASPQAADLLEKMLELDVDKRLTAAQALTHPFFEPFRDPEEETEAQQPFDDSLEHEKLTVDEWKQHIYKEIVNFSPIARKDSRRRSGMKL

ATR/ATRIP(h) = ATR/ATRIP(h) (Homo sapiens (Human), UniProt Q13535)
PKCδ(h) = PKCδ(h) (Homo sapiens (Human), UniProt Q05655)
PrKX(h) = PrKX(h) (Homo sapiens (Human), UniProt P51817)
Chain of PrKX(h) (P51817 whole entry): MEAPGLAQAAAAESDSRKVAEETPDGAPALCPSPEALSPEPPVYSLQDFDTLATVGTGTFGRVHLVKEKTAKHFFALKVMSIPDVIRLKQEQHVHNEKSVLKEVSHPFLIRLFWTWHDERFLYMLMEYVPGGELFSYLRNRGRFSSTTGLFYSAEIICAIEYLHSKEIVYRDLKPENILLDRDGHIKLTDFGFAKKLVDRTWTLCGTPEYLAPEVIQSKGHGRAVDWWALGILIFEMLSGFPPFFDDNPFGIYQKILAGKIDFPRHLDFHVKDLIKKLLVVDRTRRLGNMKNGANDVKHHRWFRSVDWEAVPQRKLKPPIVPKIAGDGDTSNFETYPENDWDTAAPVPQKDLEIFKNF

PAK1(h) = PAK1(h) (Homo sapiens (Human), UniProt Q13153)
Chain of PAK1(h) (Q13153 whole entry): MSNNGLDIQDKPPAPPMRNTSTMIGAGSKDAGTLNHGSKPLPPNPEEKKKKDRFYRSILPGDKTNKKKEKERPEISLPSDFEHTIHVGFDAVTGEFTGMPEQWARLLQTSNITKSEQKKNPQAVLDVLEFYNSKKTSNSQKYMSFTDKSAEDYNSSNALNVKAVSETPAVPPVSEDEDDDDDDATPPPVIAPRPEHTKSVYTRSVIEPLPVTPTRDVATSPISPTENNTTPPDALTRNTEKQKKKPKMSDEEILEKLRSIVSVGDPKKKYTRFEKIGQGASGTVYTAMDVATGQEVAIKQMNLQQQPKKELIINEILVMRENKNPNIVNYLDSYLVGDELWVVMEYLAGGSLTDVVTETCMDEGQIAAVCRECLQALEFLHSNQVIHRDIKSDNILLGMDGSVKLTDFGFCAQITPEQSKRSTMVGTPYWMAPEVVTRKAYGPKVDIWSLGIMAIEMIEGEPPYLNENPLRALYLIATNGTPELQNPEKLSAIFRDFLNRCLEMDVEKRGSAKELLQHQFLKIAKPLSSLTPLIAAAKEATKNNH

CLK3(h) = CLK3(h) (Homo sapiens (Human), UniProt P49761)
PRK1(h) = PRK1(h) (Homo sapiens (Human), UniProt Q16512)
WNK4(h) = WNK4(h) (Homo sapiens (Human), UniProt Q96J92)
Pim-1(h) = Pim-1(h) (Homo sapiens (Human), UniProt P11309)
Chain of Pim-1(h) (P11309 whole entry): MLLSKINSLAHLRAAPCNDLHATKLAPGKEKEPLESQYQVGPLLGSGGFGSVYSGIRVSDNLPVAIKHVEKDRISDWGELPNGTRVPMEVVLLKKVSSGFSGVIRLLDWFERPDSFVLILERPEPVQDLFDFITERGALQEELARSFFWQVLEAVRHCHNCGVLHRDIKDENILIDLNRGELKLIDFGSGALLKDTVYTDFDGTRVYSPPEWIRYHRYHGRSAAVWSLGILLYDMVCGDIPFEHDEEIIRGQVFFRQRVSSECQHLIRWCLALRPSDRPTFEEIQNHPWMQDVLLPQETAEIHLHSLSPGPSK

Chain of ROCK-II(h) (O75116 whole entry): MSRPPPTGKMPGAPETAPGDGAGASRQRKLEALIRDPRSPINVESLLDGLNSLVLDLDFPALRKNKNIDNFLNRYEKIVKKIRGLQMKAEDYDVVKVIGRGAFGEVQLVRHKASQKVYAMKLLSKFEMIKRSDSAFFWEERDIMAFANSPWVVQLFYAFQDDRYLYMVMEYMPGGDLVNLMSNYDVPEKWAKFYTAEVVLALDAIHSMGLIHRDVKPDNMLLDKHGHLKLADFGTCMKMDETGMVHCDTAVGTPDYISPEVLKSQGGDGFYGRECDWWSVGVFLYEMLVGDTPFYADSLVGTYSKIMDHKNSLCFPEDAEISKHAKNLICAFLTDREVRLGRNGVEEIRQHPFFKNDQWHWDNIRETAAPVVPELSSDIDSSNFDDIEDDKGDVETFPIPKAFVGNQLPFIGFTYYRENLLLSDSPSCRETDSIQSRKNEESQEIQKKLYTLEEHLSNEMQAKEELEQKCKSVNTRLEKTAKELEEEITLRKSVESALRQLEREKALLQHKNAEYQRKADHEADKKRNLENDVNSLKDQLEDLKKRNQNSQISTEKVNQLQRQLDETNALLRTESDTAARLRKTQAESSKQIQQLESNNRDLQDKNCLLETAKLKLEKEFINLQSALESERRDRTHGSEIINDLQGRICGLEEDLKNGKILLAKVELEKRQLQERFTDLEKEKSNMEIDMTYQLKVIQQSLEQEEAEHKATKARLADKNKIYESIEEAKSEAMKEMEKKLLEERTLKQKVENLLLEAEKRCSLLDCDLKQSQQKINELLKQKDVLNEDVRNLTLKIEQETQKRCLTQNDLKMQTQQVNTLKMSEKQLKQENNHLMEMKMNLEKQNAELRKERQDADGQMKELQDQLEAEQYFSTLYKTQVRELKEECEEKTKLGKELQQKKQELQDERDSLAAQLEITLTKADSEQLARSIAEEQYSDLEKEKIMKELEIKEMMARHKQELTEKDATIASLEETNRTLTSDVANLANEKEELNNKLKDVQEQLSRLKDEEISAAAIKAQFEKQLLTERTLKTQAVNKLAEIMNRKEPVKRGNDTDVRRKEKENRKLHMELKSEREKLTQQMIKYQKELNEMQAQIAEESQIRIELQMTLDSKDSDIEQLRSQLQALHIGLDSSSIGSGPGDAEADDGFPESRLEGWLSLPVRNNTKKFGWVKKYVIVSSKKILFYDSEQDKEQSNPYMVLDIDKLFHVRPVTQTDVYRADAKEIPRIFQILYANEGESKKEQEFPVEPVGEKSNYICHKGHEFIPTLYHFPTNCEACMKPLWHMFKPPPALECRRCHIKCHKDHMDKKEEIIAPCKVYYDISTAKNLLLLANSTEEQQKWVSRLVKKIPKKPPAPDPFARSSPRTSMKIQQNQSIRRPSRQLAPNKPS

Compound: Cc1cc2c(-c3ccc(NC(=O)[C@H](N)CC(C)(C)C)cc3C)ccnc2[nH]1 [Compound F-90, (2R)-2-Amino-4,4-dimethyl-N-[3-methyl-4-(2-methyl-1H-pyrrolo[2,3-b]pyridin-4-yl)phenyl]pentanamide]
- % Activity (ROCK-II(h)): 96%
- % Activity (LRRK2(h)): 100%
- % Activity (Fes(h)): 111%
- % Activity (PIP5K1a(h)): 103%
- % Activity (GRK1(h)): 86%
- % Activity (CLK2(h)): 106%
- % Activity (Abl(h)): 99%
- % Activity (WNK1(h)): 109%
- % Activity (CDK7/cyclinH/MAT1(h)): 95%
- % Activity (PKG1α(h)): 118%
- % Activity (BrSK2(h)): 83%
- % Activity (Hck(h)): 99%
- % Activity (CaMKIδ(h)): 89%
- % Activity (EphB3(h)): 79%
- % Activity (BTK(h)): 122%
- % Activity (IR(h)): 94%
- % Activity (DDR2(h)): 85%
- % Activity (MSK2(h)): 88%
- % Activity (MAP4K5(h)): 92%
- % Activity (SLK(h)): 109%
- % Activity (MAPK1(h)): 95%
- % Activity (MLK2(h)): 77%
- % Activity (SAPK4(h)): 94%
- % Activity (ATR/ATRIP(h)): 110%
- % Activity (PKCδ(h)): 93%
- % Activity (PrKX(h)): 101%
- % Activity (PAK1(h)): 95%
- % Activity (CLK3(h)): 107%
- % Activity (PRK1(h)): 91%
- % Activity (WNK4(h)): 97%
- % Activity (Pim-1(h)): 95%
